Assay results as given in US20230017045A1, “PYRIDINE AND PYRIMIDINE CARBOXYLATE HERBICIDES AND METHODS OF USE THEREOF” (Dow AgroSciences LLC, priority 2017, published 2023).
Read-outs that look alike come from different tables or passages of the source.

Test system: test plant species
Assay: Post-emergent herbicidal activity test (greenhouse, foliar spray, visual growth reduction)
Assay type: in vivo
Conditions: post-emergence, 336 h, 140 g ai/ha
Method in brief: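 Plants grown in greenhouse (15 h photoperiod, 23-29° C day/22-28° C night) to first or second true leaf stage were sprayed overhead with compound in acetone/water/isopropanol/DMSO/crop oil/X-77 carrier at 187 L/ha. Injury was scored visually after 14 d on a 0-100% scale versus solvent-blank and untreated controls.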

[1] = ECHCG: barnyardgrass (Echinochloa crus-galli), 14 days after application, read-out: Visual Growth Reduction (%) 14 Days After Application, ECHCG
[2] = IPOHE: ivy-leaf morning glory (Ipomoea hederacea), 14 days after application, read-out: Visual Growth Reduction (%) 14 Days After Application, IPOHE
[3] = KCHSC: kochia (Bassia scoparia), 14 days after application, read-out: Visual Growth Reduction (%) 14 Days After Application, KCHSC
[4] = ORYSA: rice (Oryza sativa), 14 days after application, read-out: Visual Growth Reduction (%) 14 Days After Application, ORYSA
[5] = SETFA: giant foxtail (Setaria faberi), 14 days after application, read-out: Visual Growth Reduction (%) 14 Days After Application, SETFA
[6] = SORVU: grain sorghum (Sorghum vulgare), 14 days after application, read-out: Visual Growth Reduction (%) 14 Days After Application, SORVU
[7] = STEME: common chickweed (Stellaria media), 14 days after application, read-out: Visual Growth Reduction (%) 14 Days After Application, STEME
[8] = TRZAS: wheat, spring (Triticum aestivum), 14 days after application, read-out: Visual Growth Reduction (%) 14 Days After Application, TRZAS
[9] = blackgrass (Alopecurus myosuroides), 14 Days After Application, read-out: Visual Growth Reduction (%) ALOMY
[10] = canada thistle (Cirsium arvense), 14 Days After Application, read-out: Visual Growth Reduction (%) CIRAR
[11] = crabgrass (Digitaria sanguinalis), 14 Days After Application, read-out: Visual Growth Reduction (%) DIGSA
[12] = lambsquarters (Chenopodium album), 14 Days After Application, read-out: Visual Growth Reduction (%) CHEAL
[13] = redroot pigweed (Amaranthus retroflexus), 14 Days After Application, read-out: Visual Growth Reduction (%) AMARE
[14] = wild oat (Avena fatua), 14 Days After Application, read-out: Visual Growth Reduction (%) AVEFA
[15] = yellow nutsedge (Cyperus esculentus), 14 Days After Application, read-out: Visual Growth Reduction (%) CYPES

Structure (SMILES)	pest or weed control at 140 g/ha [1] [%]	pest or weed control at 140 g/ha [2] [%]	pest or weed control at 140 g/ha [3] [%]	pest or weed control at 140 g/ha [4] [%]	pest or weed control at 140 g/ha [5] [%]	pest or weed control at 140 g/ha [6] [%]	pest or weed control at 140 g/ha [7] [%]	pest or weed control at 140 g/ha [8] [%]	pest or weed control at 140 g/ha [9] [%]	pest or weed control at 140 g/ha [10] [%]	pest or weed control at 140 g/ha [11] [%]	pest or weed control at 140 g/ha [12] [%]	pest or weed control at 140 g/ha [13] [%]	pest or weed control at 140 g/ha [14] [%]	pest or weed control at 140 g/ha [15] [%]
COC(=O)c1nc(-c2ccc(Cl)c(C)c2F)ccc1Cl [F272, Methyl 3-chloro-6-(4-chloro-2-fluoro-3-methylphenyl) picolinate]	0 to 29	0 to 29	0 to 29	0 to 29	0 to 29	0 to 29	0 to 29	0 to 29	0 to 29	0 to 29	0 to 29	0 to 29	0 to 29	0 to 29	0 to 29
COC(=O)c1nc(-c2ccc(Cl)c(C(F)F)c2F)ccc1Cl [F273, Methyl 3-chloro-6-(4-chloro-3-(difluoromethyl)-2-fluorophenyl) picolinate]	0 to 29	75 to 84	0 to 29	0 to 29	0 to 29	75 to 84	0 to 29	0 to 29	0 to 29	30 to 44	60 to 74	75 to 84	0 to 29	0 to 29	0 to 29
COC(=O)c1nc(-c2ccc(Cl)c(CF)c2F)ccc1Cl [F274, Methyl 3-chloro-6-(4-chloro-2-fluoro-3-(fluoromethyl)phenyl) picolinate]	0 to 29	0 to 29	0 to 29	0 to 29	0 to 29	0 to 29	0 to 29	0 to 29	0 to 29	60 to 74	0 to 29	0 to 29	0 to 29	0 to 29	0 to 29
COC(=O)c1nc(-c2ccc(C(F)F)cc2OC)c(F)cc1Cl [F275, Methyl 3-chloro-6-(4-(difluoromethyl)-2-methoxyphenyl)-5-fluoropicolinate]	0 to 29	95 to 100	85 to 94	0 to 29	45 to 59	45 to 59	0 to 29	0 to 29	0 to 29	95 to 100	0 to 29	85 to 94	60 to 74	0 to 29	0 to 29
CCOc1c(Cl)ccc(-c2ccc(Cl)c(C(=O)OC)n2)c1Cl [F276, Methyl 3-chloro-6-(2,4-dichloro-3-ethoxyphenyl) picolinate]	0 to 29	0 to 29	0 to 29	0 to 29	0 to 29	0 to 29	0 to 29	0 to 29	0 to 29	0 to 29	0 to 29	0 to 29	0 to 29	0 to 29	0 to 29
COC(=O)c1nc(-c2cccc(Cl)c2F)ccc1Cl [F277, Methyl 3-chloro-6-(3-chloro-2-fluorophenyl) picolinate]	0 to 29	0 to 29	0 to 29	0 to 29	0 to 29	0 to 29	0 to 29	0 to 29	0 to 29	0 to 29	0 to 29	0 to 29	0 to 29	0 to 29	0 to 29
